Data taken from BindingDB's records for doi:10.1021/jm049161u (Pfizer, 2006).

Target: Peptidyl-prolyl cis-trans isomerase FKBP1A (Bos taurus, UniProt P18203)
Assay: Peptidyl Prolyl Isomerase (PPIase) Inibition Assay
Conditions: not given
Experimental: (§1) It is based on the observation that chymotrypsin cleaves the C-terminal amide bond only in the trans conformer of the chromogenic substrate. The rapid hydrolysis perturbs the cis-trans conformational equilibrium, which allows one to monitor the PPIase-catalyzed cis-to-trans isomerization. […] Rate constants were generated from the absorbance versus time plots at 8-12 compound concentrations. The Kiapp was determined from the corrected rate constants using an IC50 equation or a tight-binding equation by Morrison.

Chain of Peptidyl-prolyl cis-trans isomerase FKBP1A (Bos taurus, UniProt P18203) (P18203 whole entry): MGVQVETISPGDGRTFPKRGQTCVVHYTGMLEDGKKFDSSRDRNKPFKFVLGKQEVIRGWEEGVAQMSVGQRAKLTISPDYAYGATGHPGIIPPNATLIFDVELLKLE

Question: With `COc1cc2c(c(OC)c1)C1C3CCCC(C(=O)N1CC2)N3C(=O)Nc1ccccc1` (configuration not stated) [4,6-dimethoxy-12-oxo-N-phenyl-11,17-diazatetracyclo[11.3.1.0^{2,11}.0^{3,8}]heptadeca-3(8),4,6-triene-17-carboxamide] as the molecule, how does the Ki read?
Answer: 2.7 µM

Question: Which Ki does the source give for `COc1cc2c(c(OC)c1)C1C3CCCC(C(=O)N1CC2)N3C(=O)Nc1ccc([N+](=O)[O-])cc1` (configuration not stated) [4,6-dimethoxy-N-(4-nitrophenyl)-12-oxo-11,17-diazatetracyclo[11.3.1.0^{2,11}.0^{3,8}]heptadeca-3(8),4,6-triene-17-carboxamide] here?
Answer: 0.772 µM

Question: How did the Ki turn out when `COc1cc(OC)cc(N2C=C3C4CCCC(C(=O)N3CC2=O)N4C(=O)C(=O)c2cc(OC)c(OC)c(OC)c2)c1` (configuration not stated) [4-(3,5-dimethoxyphenyl)-13-[2-oxo-2-(3,4,5-trimethoxyphenyl)acetyl]-4,7,13-triazatricyclo[7.3.1.0^{2,7}]tridec-2-ene-5,8-dione] was run?
Answer: 0.054 µM

Question: For `COc1cc2c(c(OC)c1)C1C3CCCC(C(=O)N1CC2)N3C(=O)Nc1ccc(F)cc1F` (configuration not stated) [N-(2,4-difluorophenyl)-4,6-dimethoxy-12-oxo-11,17-diazatetracyclo[11.3.1.0^{2,11}.0^{3,8}]heptadeca-3(8),4,6-triene-17-carboxamide], which Ki is on record?
Answer: 7 µM

Question: With `COc1cc2c(c(OC)c1)C1C3CCCC(C(=O)N1CC2)N3C(=O)Nc1ccccc1C` (configuration not stated) [4,6-dimethoxy-N-(2-methylphenyl)-12-oxo-11,17-diazatetracyclo[11.3.1.0^{2,11}.0^{3,8}]heptadeca-3(8),4,6-triene-17-carboxamide] as the molecule, how does the Ki read?
Answer: 0.33 µM

Question: Which Ki does the source give for `COc1cc2c(c(OC)c1)C1C3CCCC(C(=O)N1CC2)N3C(=O)Nc1ccccc1OC` (configuration not stated) [4,6-dimethoxy-N-(2-methoxyphenyl)-12-oxo-11,17-diazatetracyclo[11.3.1.0^{2,11}.0^{3,8}]heptadeca-3(8),4,6-triene-17-carboxamide] here?
Answer: 0.357 µM

Target: Peptidyl-prolyl cis-trans isomerase FKBP1A (Homo sapiens, UniProt P62942)
Assay: Peptidyl Prolyl Isomerase (PPIase) Inibition Assay
Conditions: pH 8; 15 °C
Experimental: as §1

Chain of Peptidyl-prolyl cis-trans isomerase FKBP1A (Homo sapiens, UniProt P62942) (P62942 whole entry): as the sequence (P18203 whole entry) above, with V50M, N95H, I99V counted along it

Question: `COc1cc2c(c(OC)c1)C1C3CCCC(C(=O)N1CC2)N3C(=O)C(=O)c1cc(Cl)ccc1Cl` (configuration not stated) [1-(2,5-dichlorophenyl)-2-{4,6-dimethoxy-12-oxo-11,17-diazatetracyclo[11.3.1.0^{2,11}.0^{3,8}]heptadeca-3(8),4,6-trien-17-yl}ethane-1,2-dione] was tested. Which Ki did it give?
Answer: 8.1 µM
